Data taken from patent US20220127298A1, “THERMOSPOROTHRIX HAZAKENSIS-DERIVED ANTIBACTERIALLY ACTIVE SUBSTANCE” (KENNAN EISEI KOGYO CO., LTD., priority 2019, published 2022).

Columns and labels:
Assay type in all cases: cell-based
[1] = test system: Thermosporothrix hazakensis SK20-1^T NBRC 105916^T; test: Antibacterial spectrum test, paper disk assay; conditions: 50 μL of 1000 γ solution in methanol, YS medium, 50° C., 2 days
Procedure: (§1) The antibacterial activity of HK-1 was assayed using a paper disk against the following bacterial bodies.
(§2) A piece of ice out of a glycerol stock of S. griseus stored at −80° C. was planarly inoculated on the YMPD agar culture medium with a toothpick. This was incubated at 28° C. for 5 days. After the incubation, a small amount of spore was scraped off with a swab, and planarly inoculated on the YMPD culture medium. A piece of paper disk was placed on a filter paper, onto which 50 μL of a HK-1 solution adjusted to 1000 γ with methanol was dropped and dried. Then the disk was placed on the agar culture medium coated with the bacterial body. After incubation at 28° C. for 4 days, the diameter of the inhibition ring was measured.
(§3) Assays were performed in the same manner as in 3 above, except that the incubation conditions were changed to YS culture medium (see Example 1), 50° C., and 2-day period.

[2] = test system: Thermosporothrix narukonensis F4^T; test: Antibacterial spectrum test, paper disk assay; conditions: 50 μL of 1000 γ solution in methanol, YS medium, 50° C., 2 days
Procedure: as §1, §2, §3

[3] = test system: Streptomyces sp. AGRN-7; test: Antibacterial spectrum test, paper disk assay; conditions: 50 μL of 1000 γ solution in methanol, ISP2 medium, 45° C., 2 days
Procedure: as §1, §2
An assay was performed in the same manner as in 3 above, except that the incubation conditions were changed to ISP2 culture medium, 45° C., and 2-day period.

[4] = test system: Bacillus subtilis NBRC 3134^T; test: Heat resistance test B (storage), antibacterial activity as index; conditions: FIG. 4-2
Procedure: (§4) Examples of a typical test for measuring the stability of a compound include pH stability test, as well as heat resistance test, and storage test. This information is also regarded as important in evaluating the compound as described above. Using the sample of HK-1 prepared in the above “3. Antibacterial activity test in changing pH”, experiments were carried out to examine whether the compound is stable or not using G. stearothermophilus and B. subtilis guided by the antibacterial activity as the index.
(§5) One (1) mL each of two samples prepared in the above “3. Antibacterial activity test in changing pH” was dispensed into two 1-mL micro tubes. The openings of total four tubes were closed hermetically with parafilm, and each one is shielded with an aluminum foil, and stored in a freezer set at −28° C., or an incubator set at 28° C. and 50° C. Each sample was assayed 1, 3, 6, 12, and 24 days after the initiation of the storage using the culture medium for assaying antibacterial activity prepared in “3. Antibacterial activity test in changing pH” above.

[5] = test system: Geobacillus stearothermophilus ATCC 7953; test: as above; conditions: FIG. 4-3
Procedure: as §4, §5

[6] = pH not adjusted, storage at −28° C., 28° C., 50° C., 1 to 24 days
[7] = two samples (pH 9, pH not adjusted), stored at −28° C., 28° C. and 50° C., after 24 days

difference in antibacterial activity due to the storage temperature [4, 6]: no significant difference
antibacterial activity after storage [4, 7]: not lost
difference in antibacterial activity due to the storage temperature [5, 6]: no significant difference
antibacterial activity after storage [5, 7]: not lost
Structure (SMILES): COc1cc(OOc2cc(OC)c3c(c2-c2c(O)c(Cl)c(C)c4c2C(O)c2c(Cl)c(O)cc(O)c2C4=O)C(OC2OC(C)C(O)C2O)c2c(Cl)c(OC)c(Cl)c(C)c2C3=O)c(-c2c(O)c(Cl)c(C)c3c2C(O)c2c(Cl)c(O)cc(O)c2C3=O)c2c1C(=O)c1c(C)c(Cl)c(OC)c(Cl)c1C2OC1OC(C)C(O)C1O (stereo not shown) [HK-1]
inhibition ring diameter [1]: 10.0 mm
inhibition ring diameter [2]: 10.0 mm
inhibition ring diameter [3]: 22.0 mm
